According to PubChem BioAssay (NCI):
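GI50 = concentration required for 50% inhibition of growth. TGI denotes the concentration required for complete inhibition of growth.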

Assays:
Assay in all cases: NCI tumour cell line growth inhibition, 384-well format
SF-295 CNS = test system: SF-295 CNS
SK-MEL-2 melanoma = test system: SK-MEL-2 melanoma
SK-MEL-5 melanoma = test system: SK-MEL-5 melanoma
MDA-MB-468 breast = test system: MDA-MB-468 breast
SK-MEL-28 melanoma = test system: SK-MEL-28 melanoma
ACHN renal = test system: ACHN renal
MDA-MB-435 melanoma = test system: MDA-MB-435 melanoma
NCI-H23 lung = test system: NCI-H23 lung
M14 melanoma = test system: M14 melanoma
HT29 colon = test system: HT29 colon
EKVX NSCLC = test system: EKVX NSCLC
KM12 colon = test system: KM12 colon
UO-31 renal = test system: UO-31 renal
SNB-75 CNS = test system: SNB-75 CNS
OVCAR-3 ovarian = test system: OVCAR-3 ovarian
HL-60(TB) leukemia = test system: HL-60(TB) leukemia
SK-OV-3 ovarian = test system: SK-OV-3 ovarian
MDA-MB-231 breast = test system: MDA-MB-231 breast
NCI-H322M lung = test system: NCI-H322M lung
CCRF-CEM leukemia = test system: CCRF-CEM leukemia
DU-145 prostate = test system: DU-145 prostate
HCC-2998 colon = test system: HCC-2998 colon
A498 renal = test system: A498 renal
OVCAR-8 ovarian = test system: OVCAR-8 ovarian
HOP-62 NSCLC = test system: HOP-62 NSCLC
786-0 renal = test system: 786-0 renal
LOX IMVI melanoma = test system: LOX IMVI melanoma
T-47D breast = test system: T-47D breast
NCI/ADR-RES ovarian = test system: NCI/ADR-RES ovarian
UACC-62 melanoma = test system: UACC-62 melanoma
BT-549 breast = test system: BT-549 breast
MOLT-4 leukemia = test system: MOLT-4 leukemia
SF-268 CNS = test system: SF-268 CNS
SF-539 CNS = test system: SF-539 CNS
SW-620 colon = test system: SW-620 colon
HCT-15 colon = test system: HCT-15 colon
OVCAR-5 ovarian = test system: OVCAR-5 ovarian
RPMI-8226 leukemia = test system: RPMI-8226 leukemia
U251 glioblastoma = test system: U251 glioblastoma
COLO 205 colon = test system: COLO 205 colon
TK-10 renal = test system: TK-10 renal
HCT-116 colon = test system: HCT-116 colon
NCI-H460 NSCLC = test system: NCI-H460 NSCLC
PC-3 prostate = test system: PC-3 prostate
CAKI-1 renal = test system: CAKI-1 renal
HOP-92 NSCLC = test system: HOP-92 NSCLC
K-562 leukemia = test system: K-562 leukemia
NCI-H226 lung = test system: NCI-H226 lung
UACC-257 melanoma = test system: UACC-257 melanoma
MALME-3M melanoma = test system: MALME-3M melanoma
OVCAR-4 ovarian = test system: OVCAR-4 ovarian
SNB-19 CNS = test system: SNB-19 CNS
HS 578T breast = test system: HS 578T breast
SN12C renal = test system: SN12C renal
A549 NSCLC = test system: A549 NSCLC
NCI-H522 lung = test system: NCI-H522 lung
RXF 393 renal = test system: RXF 393 renal
IGROV1 ovarian = test system: IGROV1 ovarian
MCF7 breast = test system: MCF7 breast

C[C@]12O[C@H](C[C@]1(O)CO)n1c3ccccc3c3c4c(c5c6ccccc6n2c5c31)CNC4=O
GI50 (SF-295 CNS): 0.0447 µM
TGI (SF-295 CNS): 1.26 µM
GI50 (SK-MEL-2 melanoma): < 0.01 µM
TGI (SK-MEL-2 melanoma): 0.0847 µM
GI50 (SK-MEL-5 melanoma): < 0.01 µM
TGI (SK-MEL-5 melanoma): 0.145 µM
GI50 (MDA-MB-468 breast): 0.0215 µM
TGI (MDA-MB-468 breast): 0.29 µM
GI50 (SK-MEL-28 melanoma): 0.0358 µM
TGI (SK-MEL-28 melanoma): 0.453 µM
GI50 (ACHN renal): < 0.01 µM
TGI (ACHN renal): 1.68 µM
GI50 (MDA-MB-435 melanoma): < 0.01 µM
TGI (MDA-MB-435 melanoma): 1.11 µM
GI50 (NCI-H23 lung): 0.0241 µM
TGI (NCI-H23 lung): 0.311 µM
GI50 (M14 melanoma): < 0.01 µM
TGI (M14 melanoma): 0.155 µM
GI50 (HT29 colon): 0.212 µM
TGI (HT29 colon): 10.5 µM
GI50 (EKVX NSCLC): 0.0336 µM
TGI (EKVX NSCLC): 0.471 µM
GI50 (KM12 colon): < 0.01 µM
TGI (KM12 colon): 0.212 µM
GI50 (UO-31 renal): 0.0149 µM
TGI (UO-31 renal): 1.16 µM
GI50 (SNB-75 CNS): 0.143 µM
TGI (SNB-75 CNS): 1.16 µM
GI50 (OVCAR-3 ovarian): 0.157 µM
TGI (OVCAR-3 ovarian): 1.28 µM
GI50 (HL-60(TB) leukemia): < 0.01 µM
TGI (HL-60(TB) leukemia): 0.0516 µM
GI50 (SK-OV-3 ovarian): < 0.01 µM
TGI (SK-OV-3 ovarian): 0.627 µM
GI50 (MDA-MB-231 breast): 0.0609 µM
TGI (MDA-MB-231 breast): 1.54 µM
GI50 (NCI-H322M lung): 0.584 µM
TGI (NCI-H322M lung): 2.14 µM
GI50 (CCRF-CEM leukemia): 0.0113 µM
TGI (CCRF-CEM leukemia): 0.0397 µM
GI50 (DU-145 prostate): < 0.01 µM
TGI (DU-145 prostate): 1.62 µM
GI50 (HCC-2998 colon): 0.153 µM
TGI (HCC-2998 colon): 0.773 µM
GI50 (A498 renal): < 0.01 µM
TGI (A498 renal): 1.37 µM
GI50 (OVCAR-8 ovarian): 0.0965 µM
TGI (OVCAR-8 ovarian): 0.275 µM
GI50 (HOP-62 NSCLC): 0.0445 µM
TGI (HOP-62 NSCLC): 0.646 µM
GI50 ([…]-0 renal): 0.0313 µM
TGI (786-0 renal): 0.515 µM
GI50 (LOX IMVI melanoma): 0.0253 µM
TGI (LOX IMVI melanoma): 0.186 µM
GI50 (T-47D breast): 0.456 µM
TGI (T-47D breast): 4.26 µM
GI50 (NCI/ADR-RES ovarian): 1.2 µM
TGI (NCI/ADR-RES ovarian): 2.46 µM
GI50 (UACC-62 melanoma): < 0.01 µM
TGI (UACC-62 melanoma): 0.61 µM
GI50 (BT-549 breast): 0.0123 µM
TGI (BT-549 breast): 0.213 µM
GI50 (MOLT-4 leukemia): < 0.01 µM
TGI (MOLT-4 leukemia): 0.0128 µM
GI50 (SF-268 CNS): 0.0442 µM
TGI (SF-268 CNS): 1.4 µM
GI50 (SF-539 CNS): 0.0242 µM
TGI (SF-539 CNS): 0.276 µM
GI50 (SW-620 colon): 0.0416 µM
TGI (SW-620 colon): 1.45 µM
GI50 (HCT-15 colon): < 0.01 µM
TGI (HCT-15 colon): 1.3 µM
GI50 (OVCAR-5 ovarian): 0.122 µM
TGI (OVCAR-5 ovarian): 1.9 µM
GI50 (RPMI-8226 leukemia): 0.0116 µM
TGI (RPMI-8226 leukemia): 0.0398 µM
GI50 (U251 glioblastoma): 0.29 µM
TGI (U251 glioblastoma): 1.88 µM
GI50 (COLO 205 colon): 0.0202 µM
TGI (COLO 205 colon): 0.103 µM
GI50 (TK-10 renal): < 0.01 µM
TGI (TK-10 renal): 0.598 µM
GI50 (HCT-116 colon): < 0.01 µM
TGI (HCT-116 colon): 10.3 µM
GI50 (NCI-H460 NSCLC): 0.0348 µM
TGI (NCI-H460 NSCLC): 1.09 µM
GI50 (PC-3 prostate): 0.1 µM
TGI (PC-3 prostate): 1.86 µM
GI50 (CAKI-1 renal): < 0.01 µM
TGI (CAKI-1 renal): 0.228 µM
GI50 (HOP-92 NSCLC): 0.0706 µM
TGI (HOP-92 NSCLC): 0.72 µM
GI50 (K-562 leukemia): 0.0601 µM
TGI (K-562 leukemia): 1.61 µM
GI50 (NCI-H226 lung): 0.0574 µM
TGI (NCI-H226 lung): 0.734 µM
GI50 (UACC-257 melanoma): 0.395 µM
TGI (UACC-257 melanoma): 1.68 µM
GI50 (MALME-3M melanoma): < 0.01 µM
TGI (MALME-3M melanoma): 0.0795 µM
GI50 (OVCAR-4 ovarian): 1.38 µM
TGI (OVCAR-4 ovarian): 3.2 µM
GI50 (SNB-19 CNS): 0.341 µM
TGI (SNB-19 CNS): 1.85 µM
GI50 (HS 578T breast): 0.0339 µM
TGI (HS 578T breast): 0.769 µM
GI50 (SN12C renal): < 0.01 µM
TGI (SN12C renal): 0.458 µM
GI50 (A549 NSCLC): 0.0763 µM
TGI (A549 NSCLC): 1.59 µM
GI50 (NCI-H522 lung): < 0.01 µM
TGI (NCI-H522 lung): 0.111 µM
GI50 (RXF 393 renal): < 0.01 µM
TGI (RXF 393 renal): 0.0496 µM
GI50 (IGROV1 ovarian): < 0.01 µM
TGI (IGROV1 ovarian): 1.15 µM
GI50 (MCF7 breast): 0.0642 µM
TGI (MCF7 breast): 1.33 µM
